According to publication PMC6061170, “Synthesis and biological investigations of 3β-aminotropane arylamide derivatives with atypical antipsychotic profile” (Medicinal Chemistry Research, 2018):
Several values for one entry are separate records, joined by “and”; a condition that tells them apart may be missing. Equal values may be shown once. Where a name gives a salt, the structure may show the parent alone. Read-outs that look alike come from different tables or passages of the source.

Experiments:
[1] = system: Albino Swiss mice; experiment: Forced swim test; conditions: for Immobility time (s) Mean ± SEM: last 4 min of session
[2] = biological target: T1, serotonin 5-HT2A receptors (Rattus norvegicus, UniProt P14842); experiment: Radioligand binding assay, 5-HT2A receptors; conditions: for IC50: read-out: 5-HT2A IC50 [nM] ± SEM
T1 construct: from tissue; host or cells: rat brain tissues
T1 sequence (P14842 whole entry): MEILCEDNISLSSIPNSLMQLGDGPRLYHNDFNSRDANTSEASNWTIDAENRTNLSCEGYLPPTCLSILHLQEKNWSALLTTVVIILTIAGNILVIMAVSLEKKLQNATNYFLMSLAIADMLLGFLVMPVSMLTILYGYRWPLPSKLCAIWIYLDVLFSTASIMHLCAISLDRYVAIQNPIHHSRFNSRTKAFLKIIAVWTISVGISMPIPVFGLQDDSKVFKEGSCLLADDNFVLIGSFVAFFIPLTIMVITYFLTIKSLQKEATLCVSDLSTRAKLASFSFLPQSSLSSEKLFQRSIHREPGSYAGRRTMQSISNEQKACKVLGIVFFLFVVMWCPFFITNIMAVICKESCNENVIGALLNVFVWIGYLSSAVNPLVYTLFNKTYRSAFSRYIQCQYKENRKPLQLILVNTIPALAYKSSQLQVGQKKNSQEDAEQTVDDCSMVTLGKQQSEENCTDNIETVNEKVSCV

[3] = system: CD-1 mice; experiment: Spontaneous locomotor activity; format: in vivo; conditions: for decrease of spontaneous locomotor activity: 10 mg/kg
[4] = biological target: T2, dopamine D2 receptors (Rattus norvegicus, UniProt P61169); experiment: Radioligand binding assay, D2 receptors
T2 sequence (P61169 1-415 isoform P61169-2): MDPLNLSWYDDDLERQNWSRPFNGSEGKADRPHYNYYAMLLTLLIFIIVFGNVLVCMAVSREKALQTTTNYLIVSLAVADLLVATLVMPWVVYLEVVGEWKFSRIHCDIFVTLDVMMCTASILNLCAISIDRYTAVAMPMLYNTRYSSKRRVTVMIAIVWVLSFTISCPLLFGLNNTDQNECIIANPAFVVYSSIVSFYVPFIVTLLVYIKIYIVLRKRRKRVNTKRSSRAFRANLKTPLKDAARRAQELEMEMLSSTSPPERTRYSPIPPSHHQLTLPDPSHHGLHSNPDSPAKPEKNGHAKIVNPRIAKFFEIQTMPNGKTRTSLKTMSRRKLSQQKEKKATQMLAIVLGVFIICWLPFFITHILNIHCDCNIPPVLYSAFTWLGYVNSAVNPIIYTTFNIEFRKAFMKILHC

[5] = system: CD-1 mice; experiment: MK-801-induced hyperlocomotor activity
[6] = system: CD-1 mice; experiment: d-Amphetamine-induced hyperlocomotor activity; conditions: for decrease of locomotor hyperactivity vs. respective d-amphetamine group: doses of 5 and 10 mg/kg i.p.
[7] = biological target: T3, serotonin 5-HT1A receptors (Rattus norvegicus, UniProt P19327); experiment: Radioligand binding assay, 5-HT1A receptors; conditions: for IC50: rat brain tissues, read-out: 5-HT1A IC50 [nM] ± SEM
T3 construct: from tissue; host or cells: rat brain tissues
T3 sequence (P19327 1-422): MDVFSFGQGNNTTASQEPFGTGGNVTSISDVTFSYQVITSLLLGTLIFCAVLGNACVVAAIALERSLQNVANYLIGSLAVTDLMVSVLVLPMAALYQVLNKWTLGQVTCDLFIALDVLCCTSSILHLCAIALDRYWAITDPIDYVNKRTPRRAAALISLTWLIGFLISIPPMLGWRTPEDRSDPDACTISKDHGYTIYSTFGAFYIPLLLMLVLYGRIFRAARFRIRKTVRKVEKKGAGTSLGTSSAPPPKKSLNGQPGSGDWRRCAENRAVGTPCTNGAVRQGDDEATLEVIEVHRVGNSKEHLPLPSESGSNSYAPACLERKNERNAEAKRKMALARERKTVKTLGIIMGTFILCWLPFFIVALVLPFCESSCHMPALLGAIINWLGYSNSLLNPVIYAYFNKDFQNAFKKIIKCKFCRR
Method: All compounds were tested for their affinities for 5-HT1A, 5-HT2A, and D2 receptors according to previously described procedures (Stefanowicz et al. [2016]).
Competition binding studies were performed according to a previously described procedure in rat brain tissues (Stefanowicz et al. [2016]).

[8] = system: Albino Swiss mice; experiment: Four-plate test
[9] = biological target: T1, serotonin 5-HT2A receptors; parameters: method as in Słowiński et al. 2011, 2013; Stefanowicz et al. 2016; conditions: earlier lead structures, Fig. 1/Fig. 2; ref Słowiński et al. 2011, 2013; Stefanowicz et al. 2016; cited from earlier work
[10] = biological target: T2, dopamine D2 receptors; parameters: method as in Słowiński et al. 2011, 2013; Stefanowicz et al. 2016; conditions: earlier lead structures, Fig. 1/Fig. 2; ref Słowiński et al. 2011, 2013; Stefanowicz et al. 2016; cited from earlier work
[11] = biological target: T3, serotonin 5-HT1A receptors; conditions: earlier lead structures, Fig. 1/Fig. 2; ref Słowiński et al. 2011, 2013; Stefanowicz et al. 2016; cited from earlier work
[12] = 2.5 mg/kg i.p. 30 min before test
[13] = 10 mg/kg i.p. 30 min before test
[14] = rat brain tissues, read-out: 5-HT2A Ki [nM] ± SEM
[15] = rat brain tissues, read-out: D2 IC50 [nM] ± SEM
[16] = compound 1.25 mg/kg i.p. 30 min + MK-801 0.2 mg/kg
[17] = compound 2.5 mg/kg i.p. 30 min + MK-801 0.2 mg/kg
[18] = compound 5 mg/kg i.p. 30 min + MK-801 0.2 mg/kg
[19] = compound 5 mg/kg i.p. + d-amphetamine 2.5 mg/kg s.c.
[20] = compound 10 mg/kg i.p. + d-amphetamine 2.5 mg/kg s.c.
[21] = 5 mg/kg i.p. 30 min before test
[22] = 1.25 mg/kg i.p. 30 min before test
[23] = compound 10 mg/kg i.p. 30 min + MK-801 0.2 mg/kg

SMILES: Cc1cccc(CN2C3CCC2CC(NC(=O)c2ccc4ccccc4n2)C3)c1 (stereo not drawn) [Compound 12e]
- Immobility time (s) Mean ± SEM [1, 12]: 172.14 ± 11.6 s
- Immobility time (s) Mean ± SEM [1, 13]: 183.33 ± 12.3 F(3,30) = 1.2074; NS s
- IC50 ([2]; rat brain tissues): > 10000 nM
- Ki [2, 14]: > 10000 nM
- Number of crossings/60 min Mean ± SEM [3, 13]: 1034 ± 255.9 p < 0.05 F(1,18) = 5.4398; p < 0.05 crossings/60 min
- effect on spontaneous locomotor activity ([3]; doses used in hyperlocomotor activity tests): did not change the spontaneous locomotor activity
- Ki [4]: 0.0522 ± 0.0034 µM
- IC50 [4, 15]: 260 ± 16.7 nM
- effect on MK-801-induced hyperlocomotor activity ([5]; 5 mg/kg, tendency to decrease): did not reach a statistically significant level
- Number of crossings/60 min Mean ± SEM ([5]; compound 0.625 mg/kg i.p. 30 min + MK-801 0.2 mg/kg): 4375.1 ± 583.4; ns, ns crossings/60 min
- Number of crossings/60 min Mean ± SEM [5, 16]: 4019.3 ± 341.3; ns, ns crossings/60 min
- Number of crossings/60 min Mean ± SEM [5, 17]: 5440.1 ± 937.3 ns, ns crossings/60 min
- Number of crossings/60 min Mean ± SEM [5, 18]: 3580.7 ± 384.9; ns, ns F(5,48) = 2.8885; p < 0.05 crossings/60 min
- Number of crossings/60 min Mean ± SEM ([6]; compound 2.5 mg/kg i.p. + d-amphetamine 2.5 mg/kg s.c.): 2993.0 ± 301.0; p < 0.01 vs. amph.; ns vs. contr crossings/60 min
- Number of crossings/60 min Mean ± SEM [6, 19]: 2651.0 ± 512.6; p < 0.01 vs. amph.; ns vs. contr crossings/60 min
- Number of crossings/60 min Mean ± SEM [6, 20]: 909.9 ± 11.3; p < 0.0001 vs. amph.; ns vs. contr F(4,42) = 10.584; p < 0.0001 crossings/60 min
- decrease of locomotor hyperactivity vs. respective d-amphetamine group [6]: 60–86%
- Ki [7]: 0.0553 ± 0.0083 µM
- IC50 [7]: 166 ± 25 nM
- Number of punished crossings /1 min Mean ± SEM [8, 12]: 3.5 ± 0.3 crossings/1 min
- Number of punished crossings /1 min Mean ± SEM [8, 21]: 2.9 ± 0.3 crossings/1 min
- Number of punished crossings /1 min Mean ± SEM [8, 13]: 3.8 ± 0.5 F(3,36) = 1.3827; NS crossings/1 min
- melting point: 113.8 to 114.7 °C

SMILES: Cc1ccc(CN2C3CCC2CC(NC(=O)c2ccc4ccccc4n2)C3)cc1 (stereo not drawn) [Compound 12i, N-[8-(4-methylbenzyl)-8-azabicyclo[3.2.1]oct-3β-yl)]-quinoline-2-carboxamide oxalate]
- Immobility time (s) Mean ± SEM [1, 22]: 132.00 ± 2.93 s
- Immobility time (s) Mean ± SEM [1, 12]: 149.89 ± 12.7 s
- Immobility time (s) Mean ± SEM [1, 21]: 219.67 ± 1.43; p < 0.05 F(3,26) = 7.5750; p < 0.001 s
- IC50 ([2]; rat brain tissues): > 10000 nM
- Ki [2, 14]: > 10000 nM
- Number of crossings/60 min Mean ± SEM [3, 22]: 1573.6 ± 149.3 crossings/60 min
- Number of crossings/60 min Mean ± SEM [3, 12]: 2676.0 ± 336.7; p < 0.01 crossings/60 min
- Number of crossings/60 min Mean ± SEM [3, 21]: 1135.8 ± 184.3 F(3,34) = 8.8733; p < 0.001 crossings/60 min
- decrease of spontaneous locomotor activity [3]: about 70%
- IC50 [4]: 37 ± 2.1 nM
- Ki [4]: 0.0074 ± 0.0004 µM
- effect on MK-801-induced hyperlocomotor activity ([5]; 5 mg/kg and 10 mg/kg i.p.): significantly reduced
- Number of crossings/60 min Mean ± SEM [5, 18]: 2432.8 ± 526.6; ns vs. contr p < 0.01 vs. MK crossings/60 min
- Number of crossings/60 min Mean ± SEM [5, 23]: 805.4 ± 147.2 ns vs. contr p < 0.0001 vs. MK F(3,30) = 14.206; p < 0.0001 crossings/60 min
- Number of crossings/60 min Mean ± SEM [6, 19]: 1771.3 ± 470.4; p < 0.01 vs. amph.; ns vs. contr crossings/60 min
- Number of crossings/60 min Mean ± SEM [6, 20]: 2046.2 ± 63.1; p < 0.01 vs. amph.; ns vs. contr F(3,34) = 6.5110; p < 0.01 crossings/60 min
- decrease of locomotor hyperactivity vs. respective d-amphetamine group [6]: 60–86%
- Ki [7]: 0.0435 ± 0.0013 µM
- IC50 [7]: 131 ± 4.4 nM
- Number of punished crossings /1 min Mean ± SEM [8, 12]: 3.1 ± 0.3 crossings/1 min
- Number of punished crossings /1 min Mean ± SEM [8, 21]: 2.3 ± 0.4 crossings/1 min
- Number of punished crossings /1 min Mean ± SEM [8, 13]: 1.7 ± 0.4; p < 0.05 F(3,35) = 4.2954; p < 0.05 crossings/1 min

SMILES: Nc1ccccc1CN1C2CCC1CC(NC(=O)c1ccc3ccccc3c1)C2 (stereo not drawn) [Compound 19a]
- Immobility time (s) Mean ± SEM [1, 22]: 120.00 ± 16.6 s
- Immobility time (s) Mean ± SEM [1, 12]: 128.89 ± 12.3 s
- decrease of immobility time vs. respective control group ([1]; 5 mg/kg i.p.): about 43%
- Immobility time (s) Mean ± SEM [1, 21]: 96.56 ± 16.2; p < 0,01 F(3,31) = 4.5279; p < 0.01 s
- Ki [2]: 46.8 ± 5.5 nM
- IC50 ([2]; rat brain tissues): 173 ± 19.3 nM
- Number of crossings/60 min Mean ± SEM [3, 12]: 1634.4 ± 511.9 F(2,27) = 0.7417; NS crossings/60 min
- Number of crossings/60 min Mean ± SEM [3, 21]: 1480.4 ± 302.3 crossings/60 min
- decrease of spontaneous locomotor activity [3]: about 70%
- Number of crossings/60 min Mean ± SEM [3, 13]: 491.6 ± 126.5 F(2,26) = 5.3557; p < 0.05 crossings/60 min
- Ki [4]: 0.0415 ± 0.0015 µM
- IC50 [4, 15]: 209 ± 5.5 nM
- effect on MK-801-induced hyperlocomotor activity ([5]; 5 mg/kg and 10 mg/kg i.p.): significantly reduced
- Number of crossings/60 min Mean ± SEM [5, 16]: 4646.4 ± 675.6; ns, ns crossings/60 min
- Number of crossings/60 min Mean ± SEM [5, 17]: 3832.0 ± 991.3; ns, ns F(3,33) = 5.2088; p < 0.01 crossings/60 min
- Number of crossings/60 min Mean ± SEM [5, 18]: 2915.4 ± 580.2; p < 0.001 vs. MK; ns vs. contr F(2,27) = 16.679; p < 0.0001 crossings/60 min
- Number of crossings/60 min Mean ± SEM [5, 23]: 808.7 ± 66.3; p < 0.0001 vs. Mk; p < 0.05 vs. contr F(2,20) = 23.813; p < 0.001 crossings/60 min
- Number of crossings/60 min Mean ± SEM [6, 19]: 4328.6 ± 1146.8 crossings/60 min
- Number of crossings/60 min Mean ± SEM [6, 20]: 950.0 ± 411.7; p < 0.01 vs. amph.; ns vs. contr F(3,35) = 5.6910; p < 0.01 crossings/60 min
- activity in d-amphetamine-induced hyperlocomotor activity test ([6]; i.p.): active in this test only at a dose of 10 mg/kg i.p.
- Ki [7]: 0.053 ± 0.002 µM
- IC50 [7]: 159 ± 5.5 nM
- Number of punished crossings /1 min Mean ± SEM [8, 12]: 3.2 ± 0.5 crossings/1 min
- Number of punished crossings /1 min Mean ± SEM [8, 21]: 1.1 ± 0.2 crossings/1 min
- Number of punished crossings /1 min Mean ± SEM [8, 13]: 3.2 ± 0.5 F(3,33) = 5.6670; p < 0.01 crossings/1 min
- melting point: 172.7 to 173.3 °C

SMILES: C[C@]12N[C@H](Cc3ccccc31)c1ccccc12 [MK-801, reference compound]
- Number of crossings/60 min Mean ± SEM ([5]; MK-801 alone 0.2 mg/kg i.p. 15 min before test): 4708.1 ± 522.1; p < 0.01 vs. contr crossings/60 min and 6247.1 ± 1063.8; p < 0.01 vs. contr crossings/60 min and 8757.9 ± 1378; p < 0.00001 vs. contr crossings/60 min and 6329.9 ± 1012.5; p < 0.05 vs. contr crossings/60 min

SMILES: O=C(NC1CC2CCC(C1)N2Cc1cccc(Br)c1)c1ccc2ccccc2c1 (stereo not drawn) [R = -Br]
- Ki [9]: 0.106 µM

SMILES: Cc1cccc(CN2C3CCC2CC(NC(=O)c2ccc4ccccc4c2)C3)c1 (stereo not drawn) [R = -CH3]
- Ki [9]: 0.231 µM

SMILES: O=C(NC1CC2CCC(C1)N2Cc1ccccc1)c1ccc2ccccc2c1 (stereo not drawn) [compound A]
- Ki [10]: 0.0824 µM
- Ki [9]: 0.0025 µM
- Ki [11]: 0.304 µM

SMILES: C[C@H](N)Cc1ccccc1 [d-amphetamine, reference compound]
- Number of crossings/60 min Mean ± SEM ([6]; d-amphetamine alone 2.5 mg/kg s.c. 30 min before test): 6819.9 ± 1534.7; p < 0.05 vs. contr crossings/60 min and 6553.1 ± 1214.5; p < 0.001 vs. contr crossings/60 min
